According to patent US20210395210A1, “INHIBITION OF BACTERIAL CHAPERONIN SYSTEMS” (THE TRUSTEES OF INDIANA UNIVERSITY, priority 2018, published 2021):
Read-outs that look alike come from different tables or passages of the source.

Experiments:
[1] = tested on: Enterococcus faecium (ATCC 19434); assay: Bacterial proliferation assay, E. faecium; assay type: cell-based
Summary of the method: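 Enterococcus faecium ATCC 19434 was grown overnight at 37° C. in BHI broth supplemented with 25 mg/L Ca^2+ and 12.5 mg/L Mg^2+, subcultured 1:5, and diluted to OD600 0.017. 30 μL portions went into 384-well plates holding compounds, sealed with oxygen-permeable membranes, and incubated stagnant at 37° C. OD600 was read at 24 h to give EC50.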

[2] = tested on: Pseudomonas aeruginosa (ATCC 10145); assay: Bacterial proliferation assay, P. aeruginosa; assay type: cell-based
Summary of the method: (§1)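 Cultures in BHI broth with 25 mg/L Ca2+ and 12.5 mg/L Mg2+ were diluted to OD600 0.017 and exposed to compounds in 384-well plates at 37 °C without shaking. OD600 was read at 6-8 h (S. aureus, E. cloacae, P. aeruginosa) or 24 h (A. baumannii). EC50 values were averaged over quadruplicates.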

human HSP60/10 = target: T1, human HSP60/10 (Homo sapiens, UniProt P10809); assay: HSP60/10-mediated dMDH refolding assay; assay type: biochemical; settings: human HSP60/10-dMDH refolding assay
T1 construct: octa-Histidine tag (TEV-cleavable) (N, cleaved yes); made in house; host or cells: HSP60 in E. coli Rosetta 2 (DE3); HSP10 in Rosetta 2 (DE3) pLysS
T1 sequence (P10809 27-573): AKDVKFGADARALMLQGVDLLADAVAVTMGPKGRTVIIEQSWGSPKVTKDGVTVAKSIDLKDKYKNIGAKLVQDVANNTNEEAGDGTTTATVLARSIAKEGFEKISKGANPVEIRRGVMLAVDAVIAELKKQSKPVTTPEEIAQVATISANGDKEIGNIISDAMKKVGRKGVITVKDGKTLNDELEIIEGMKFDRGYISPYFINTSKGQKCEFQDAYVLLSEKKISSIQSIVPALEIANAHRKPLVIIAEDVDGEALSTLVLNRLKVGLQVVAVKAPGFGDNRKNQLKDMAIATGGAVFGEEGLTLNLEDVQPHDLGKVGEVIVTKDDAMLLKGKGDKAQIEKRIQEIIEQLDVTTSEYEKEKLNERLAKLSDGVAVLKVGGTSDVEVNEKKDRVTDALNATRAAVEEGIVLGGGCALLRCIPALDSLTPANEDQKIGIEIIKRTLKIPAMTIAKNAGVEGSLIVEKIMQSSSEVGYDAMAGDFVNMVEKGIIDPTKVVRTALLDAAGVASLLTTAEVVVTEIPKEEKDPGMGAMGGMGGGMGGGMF
Summary of the method: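 Preformed HSP60/10 (or GroEL/ES) complex with guanidine-denatured pig heart MDH was started with ATP (during refolding: 50 nM HSP60, 60 nM HSP10, 12 nM dMDH, 1 mM ATP; compounds 100 μM to 46 nM) at 37° C, then EDTA-quenched. Refolded MDH activity read as A340 NADH consumption with mesoxalate.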

[3] = tested on: Klebsiella Pneumonia (ATCC 13883); assay: Bacterial proliferation assay, K. pneumoniae; assay type: cell-based
Summary of the method: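 Klebsiella pneumoniae ATCC 13883 was cultured in Brain Heart Infusion medium supplemented with 25 mg/L Ca^2+ and 12.5 mg/L Mg^2+. Cells were diluted to OD600 0.017, and 30 μL was added to 384-well plates holding 0.5 μL compound in 20 μL media. Plates were incubated stagnantly at 37° C., and OD600 was read at 6-8 h to determine EC50.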

[4] = tested on: Drug sensitive Staphylococcus aureus (ATCC 25923); assay: Bacterial proliferation assay, drug sensitive S. aureus; assay type: cell-based
Summary of the method: as §1

[5] = ATCC19434, OD600 at 24 h, read-out: Bacterial Proliferation EC50 E. faecium
[6] = ATCC19434, log of EC50 (μM scale), with standard deviation, read-out: log(EC50) Bacterial Proliferation Assay C. faecium (converted)
[7] = ATCC10145, OD600 at 6-8 h, read-out: Bacterial Proliferation EC50 P. aeruginosa
[8] = ATCC10145, log of EC50 (μM scale), with standard deviation, read-out: log(EC50) Bacterial Proliferation Assay P. aeruginosa (converted)
[9] = read-out: HSP60/10-dMDH Refolding IC50
[10] = log(IC50) ± standard deviation, read-out: HSP60/10-dMDH Refolding Assay log(IC50) (converted)
[11] = ATCC13883, OD600 at 6-8 h, read-out: Bacterial Proliferation EC50 K. pneumoniae
[12] = ATCC13883, log of EC50 (μM scale), with standard deviation, read-out: log(EC50) Bacterial Proliferation Assay K. pneumoniae (converted)
[13] = ATCC25923, OD600 at 6-8 h, read-out: Bacterial Proliferation EC50 S. aureus Sensitive
[14] = ATCC25923, log of EC50 (μM scale), with standard deviation, read-out: log(EC50) Bacterial Proliferation Assay S. aureus Sensitive (converted)
[15] = ATCC19434, 24 h, read-out: Bacterial Proliferation EC50 E. faecium
[16] = ATCC19434, read-out: log(EC50) Bacterial Proliferation Assay C. faecium (converted)
[17] = ATCC10145, read-out: Bacterial Proliferation EC50 P. aeruginosa
[18] = ATCC10145, read-out: log(EC50) Bacterial Proliferation Assay P. aeruginosa (converted)
[19] = ATCC13883, read-out: Bacterial Proliferation EC50 K. pneumoniae
[20] = ATCC13883, read-out: log(EC50) Bacterial Proliferation Assay K. pneumoniae (converted)
[21] = ATCC25923, read-out: Bacterial Proliferation EC50 S. aureus Sensitive
[22] = ATCC25923, read-out: log(EC50) Bacterial Proliferation Assay S. aureus Sensitive (converted)
[23] = ATCC25923, read-out: S. aureus Proliferation & Biofilm Assay EC50 Planktonic Growth

Compound	EC50 [1, 5] [µM]	EC50 [1, 6] [µM]	EC50 [2, 7] [µM]	EC50 [2, 8] [µM]	IC50 (human HSP60/10; [9]) [µM]	IC50 (human HSP60/10; [10]) [µM]	EC50 [3, 11] [µM]	EC50 [3, 12] [µM]	EC50 [4, 13] [µM]	EC50 [4, 14] [µM]	EC50 [1, 15] [µM]	EC50 [1, 16] [µM]	EC50 [2, 17] [µM]	EC50 [2, 18] [µM]	EC50 [3, 19] [µM]	EC50 [3, 20] [µM]	EC50 [4, 21] [µM]	EC50 [4, 22] [µM]	EC50 [4, 23] [µM]
O=C(Nc1cccc(Cl)c1)c1ccccc1 [Compound 25, N-(3-Chlorophenyl)benzamide]	> 100	> 100	> 100	> 100	> 100	> 100	> 100	> 100	> 100	> 100	–	–	–	–	–	–	–	–	–
COc1c(Br)cccc1C(=O)Nc1cccc(Cl)c1 [Compound 38]	> 100	> 100	> 100	> 100	> 100	> 100	> 100	> 100	> 100	> 100	–	–	–	–	–	–	–	–	–
O=C(Nc1ccc(Sc2nc3ccccc3s2)c(Cl)c1)c1cc(Br)ccc1O [Compound 3, N-(4-(Benzo[d]thiazol-2-ylthio)-3-chlorophenyl)-5-bromo-2-hydroxybenzamide]	–	–	–	–	> 100	> 100	–	–	–	–	15	14.8	> 100	> 100	> 100	> 100	0.12	0.117	–
O=C(Nc1ccc(Sc2nc3ccccc3s2)c(Cl)c1)c1cccc(Br)c1O [Compound 2, N-(4-(Benzo[d]thiazol-2-ylthio)-3-chlorophenyl)-3-bromo-2-hydroxybenzamide]	–	–	–	–	6.9	6.92	–	–	–	–	24	23.4	> 100	> 100	> 100	> 100	0.45	0.457	0.45
COc1c(Br)cccc1C(=O)Nc1ccc(Sc2nc3ccccc3s2)c(Cl)c1 [Compound 30, N-(4-(Benzo[d]thiazol-2-ylthio)-3-chlorophenyl)-3-bromo-2-methoxybenzamide]	> 100	> 100	> 100	> 100	> 100	> 100	> 100	> 100	> 100	> 100	–	–	–	–	–	–	–	–	–
O=C(Nc1ccc(Sc2nc3ccccc3s2)cc1)c1cc(Br)cc(Br)c1O [Compound 5, N-(4-(Benzo[d]thiazol-2-ylthio)phenyl)-3,5-dibromo-2-hydroxybenzamide]	–	–	–	–	4.7	4.68	–	–	–	–	0.88	0.891	> 100	> 100	> 100	> 100	0.44	0.437	0.44
O=C(Nc1ccc(Sc2nc3ccccc3s2)cc1)c1ccccc1 [Compound 22, N-(4-(Benzo[d]thiazol-2-ylthio)phenyl)benzamide]	> 100	> 100	> 100	> 100	> 100	> 100	> 100	> 100	> 100	> 100	–	–	–	–	–	–	–	–	–
CC1(C)S[C@@H]2[C@H](NC(=O)[C@H](N)c3ccccc3)C(=O)N2[C@H]1C(=O)O [Ampicillin, ampicillin, reference compound]	6.9	6.92	> 100	> 100	> 100	> 100	> 100	> 100	0.19	0.195	–	–	–	–	–	–	–	–	–
